ChEMBL document CHEMBL2010722, “Structure-activity relationship study of beta-carboline derivatives as haspin kinase inhibitors” (Bioorg Med Chem Lett, 2012)

Columns and labels:
[1] = biological target: Discoidin domain-containing receptor 2 (Homo sapiens) (UniProt Q16832); assay: Inhibition of DDR2 at 10 uM
[2] = biological target: Fibroblast growth factor receptor 1 (Homo sapiens) (UniProt P11362); assay: Inhibition of FGFR1 at 10 uM
[3] = biological target: Mitogen-activated protein kinase 9 (Homo sapiens) (UniProt P45984); assay: Inhibition of JNK2 at 10 uM
[4] = biological target: Ephrin type-A receptor 6 (Homo sapiens) (UniProt Q9UF33); assay: Inhibition of EPHA6 at 10 uM
[5] = biological target: T1, Serine/threonine-protein kinase haspin (Homo sapiens, UniProt Q8TF76)
T1 sequence (Q8TF76 whole entry): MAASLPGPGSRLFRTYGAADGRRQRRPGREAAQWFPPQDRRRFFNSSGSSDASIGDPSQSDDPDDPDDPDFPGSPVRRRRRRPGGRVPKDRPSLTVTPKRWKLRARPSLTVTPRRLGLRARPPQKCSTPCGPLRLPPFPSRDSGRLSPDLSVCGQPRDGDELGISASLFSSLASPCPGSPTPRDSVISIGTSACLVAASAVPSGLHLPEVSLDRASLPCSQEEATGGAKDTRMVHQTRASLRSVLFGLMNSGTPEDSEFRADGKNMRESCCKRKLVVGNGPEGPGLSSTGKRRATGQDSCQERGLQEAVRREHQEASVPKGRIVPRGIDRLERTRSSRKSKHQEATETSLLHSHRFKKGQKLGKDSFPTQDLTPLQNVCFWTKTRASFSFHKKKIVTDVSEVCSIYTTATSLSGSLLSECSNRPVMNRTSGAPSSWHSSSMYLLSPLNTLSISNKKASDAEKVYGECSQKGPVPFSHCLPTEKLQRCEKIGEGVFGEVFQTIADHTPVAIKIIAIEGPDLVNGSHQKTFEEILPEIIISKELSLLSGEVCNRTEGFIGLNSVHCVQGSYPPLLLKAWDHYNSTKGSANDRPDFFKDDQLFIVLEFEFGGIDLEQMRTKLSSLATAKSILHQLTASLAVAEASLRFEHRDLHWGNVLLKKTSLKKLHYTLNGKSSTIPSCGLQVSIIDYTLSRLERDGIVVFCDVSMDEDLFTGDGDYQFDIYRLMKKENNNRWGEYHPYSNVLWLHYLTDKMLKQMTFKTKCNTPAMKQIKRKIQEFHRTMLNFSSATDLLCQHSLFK

[6] = biological target: MAP kinase-activated protein kinase 2 (Homo sapiens) (UniProt P49137); assay: Inhibition of MAPKAPK2 at 10 uM
[7] = biological target: Ephrin type-B receptor 4 (Homo sapiens) (UniProt P54760); assay: Inhibition of EPHB4 at 10 uM
[8] = biological target: Serine/threonine-protein kinase LATS2 (Homo sapiens) (UniProt Q9NRM7); assay: Inhibition of LATS2 at 10 uM
[9] = biological target: Serine/threonine-protein kinase PAK 6 (Homo sapiens) (UniProt Q9NQU5); assay: Inhibition of PAK6 at 10 uM
[10] = biological target: Mitogen-activated protein kinase 7 (Homo sapiens) (UniProt Q13164); assay: Inhibition of Erk5 at 10 uM
[11] = biological target: Calcium/calmodulin-dependent protein kinase type II subunit delta (Homo sapiens) (UniProt Q13557); assay: Inhibition of CaMK2d at 10 uM
[12] = biological target: Serine/threonine-protein kinase D3 (Homo sapiens) (UniProt O94806); assay: Inhibition of PKD3 at 10 uM
[13] = biological target: Rho-associated protein kinase 1 (Homo sapiens) (UniProt Q13464); assay: Inhibition of ROCK1 at 10 uM
[14] = biological target: Serine/threonine-protein kinase TAO2 (Homo sapiens) (UniProt Q9UL54); assay: Inhibition of TAOK2 at 10 uM
EML4-ALK (Homo sapiens) = EML4-ALK (Homo sapiens) (UniProt Q9UM73+Q9HC35); assay: Inhibition of EML4-ALK at 10 uM; assay type: protein assay
[15] = biological target: PI3-kinase p110-alpha/p85-alpha (Homo sapiens) (UniProt P27986+P42336); assay: Inhibition of PIK3CA/PIK3R1 at 10 uM; assay type: protein-complex assay
[16] = biological target: MAP kinase-activated protein kinase 5 (Homo sapiens) (UniProt Q8IW41); assay: Inhibition of MAPKAPK5 at 10 uM
[17] = biological target: Aurora kinase A (Homo sapiens) (UniProt O14965); assay: Inhibition of AurA at 10 uM
[18] = biological target: Vascular endothelial growth factor receptor 2 (Homo sapiens) (UniProt P35968); assay: Inhibition of KDR at 10 uM
[19] = biological target: Protein kinase C zeta type (Homo sapiens) (UniProt Q05513); assay: Inhibition of PKCzeta at 10 uM
[20] = biological target: SRSF protein kinase 3 (Homo sapiens) (UniProt Q9UPE1); assay: Inhibition of MSSK1 (SRPK3) at 10 uM
[21] = biological target: Protein kinase C epsilon type (Homo sapiens) (UniProt Q02156); assay: Inhibition of PKCepsilon at 10 uM
[22] = biological target: Cyclin-dependent kinase 1/cyclin B1 (Homo sapiens) (UniProt P06493+P14635); assay: Inhibition of CDC2-CycB1 at 10 uM; assay type: protein-complex assay
[23] = biological target: Serine/threonine-protein kinase DCLK2 (Homo sapiens) (UniProt Q8N568); assay: Inhibition of DCAMKL2 at 10 uM
[24] = biological target: Serine/threonine-protein kinase 24 (Homo sapiens) (UniProt Q9Y6E0); assay: Inhibition of MST3 at 10 uM
[25] = biological target: Tyrosine-protein kinase Blk (Homo sapiens) (UniProt P51451); assay: Inhibition of BLK at 10 uM
[26] = biological target: Calcium/calmodulin-dependent protein kinase type 1D (Homo sapiens) (UniProt Q8IU85); assay: Inhibition of CaMK1d at 10 uM
[27] = biological target: Tyrosine-protein kinase ABL1 (Homo sapiens) (UniProt P00519); assay: Inhibition of ABL at 10 uM
[28] = test system: Mast/stem cell growth factor receptor Kit (Homo sapiens), P10721 [V654A]; assay: Inhibition of KIT V654A mutant at 10 uM
[29] = biological target: Serine/threonine-protein kinase 4 (Homo sapiens) (UniProt Q13043); assay: Inhibition of MST1 at 10 uM
[30] = biological target: Casein kinase I isoform gamma-3 (Homo sapiens) (UniProt Q9Y6M4); assay: Inhibition of CK1g3 at 10 uM
[31] = biological target: Serine/threonine-protein kinase Nek2 (Homo sapiens) (UniProt P51955); assay: Inhibition of NEK2 at 10 uM
[32] = test system: Mast/stem cell growth factor receptor Kit (Homo sapiens), P10721 [D816V]; assay: Inhibition of KIT D816V mutant at 10 uM
[33] = biological target: Cyclin-dependent kinase 2/cyclin E1 (Homo sapiens) (UniProt P24864+P24941); assay: Inhibition of CDK2-Cyclin E1 at 10 uM; assay type: protein-complex assay
[34] = biological target: Serine/threonine-protein kinase SIK1 (Homo sapiens) (UniProt P57059); assay: Inhibition of SIK at 10 uM
[35] = Inhibition of SRM at 10 uM

Sequence of Serine/threonine-protein kinase 4 (Homo sapiens) (Q13043 whole entry, canonical isoform): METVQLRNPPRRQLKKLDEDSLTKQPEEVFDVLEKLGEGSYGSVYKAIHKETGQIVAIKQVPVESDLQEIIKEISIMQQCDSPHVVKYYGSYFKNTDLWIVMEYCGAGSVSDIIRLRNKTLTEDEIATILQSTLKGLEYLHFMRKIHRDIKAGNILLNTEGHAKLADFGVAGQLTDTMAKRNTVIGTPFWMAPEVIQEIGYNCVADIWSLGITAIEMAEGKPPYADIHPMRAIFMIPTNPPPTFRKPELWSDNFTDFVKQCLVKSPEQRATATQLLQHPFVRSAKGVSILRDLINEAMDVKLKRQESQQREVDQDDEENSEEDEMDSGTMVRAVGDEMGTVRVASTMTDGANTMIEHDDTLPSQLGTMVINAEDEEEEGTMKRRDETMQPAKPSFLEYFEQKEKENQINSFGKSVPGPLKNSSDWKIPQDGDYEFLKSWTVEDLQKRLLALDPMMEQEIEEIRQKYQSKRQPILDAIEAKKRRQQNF
Sequence of MAP kinase-activated protein kinase 2 (Homo sapiens) (P49137 whole entry, looked up): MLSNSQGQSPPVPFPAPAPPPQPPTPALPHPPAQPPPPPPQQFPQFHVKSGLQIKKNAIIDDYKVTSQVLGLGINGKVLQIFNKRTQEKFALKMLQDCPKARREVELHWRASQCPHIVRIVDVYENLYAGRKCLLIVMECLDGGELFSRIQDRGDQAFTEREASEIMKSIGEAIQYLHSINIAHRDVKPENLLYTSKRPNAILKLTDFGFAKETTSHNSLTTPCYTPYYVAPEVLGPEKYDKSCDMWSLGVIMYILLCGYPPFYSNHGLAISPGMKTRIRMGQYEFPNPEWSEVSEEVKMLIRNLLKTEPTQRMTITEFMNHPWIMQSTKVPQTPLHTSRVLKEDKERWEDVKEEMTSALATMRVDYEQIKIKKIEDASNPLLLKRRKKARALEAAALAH
Sequence of EML4-ALK (Homo sapiens) (Q9HC35 whole entry partner): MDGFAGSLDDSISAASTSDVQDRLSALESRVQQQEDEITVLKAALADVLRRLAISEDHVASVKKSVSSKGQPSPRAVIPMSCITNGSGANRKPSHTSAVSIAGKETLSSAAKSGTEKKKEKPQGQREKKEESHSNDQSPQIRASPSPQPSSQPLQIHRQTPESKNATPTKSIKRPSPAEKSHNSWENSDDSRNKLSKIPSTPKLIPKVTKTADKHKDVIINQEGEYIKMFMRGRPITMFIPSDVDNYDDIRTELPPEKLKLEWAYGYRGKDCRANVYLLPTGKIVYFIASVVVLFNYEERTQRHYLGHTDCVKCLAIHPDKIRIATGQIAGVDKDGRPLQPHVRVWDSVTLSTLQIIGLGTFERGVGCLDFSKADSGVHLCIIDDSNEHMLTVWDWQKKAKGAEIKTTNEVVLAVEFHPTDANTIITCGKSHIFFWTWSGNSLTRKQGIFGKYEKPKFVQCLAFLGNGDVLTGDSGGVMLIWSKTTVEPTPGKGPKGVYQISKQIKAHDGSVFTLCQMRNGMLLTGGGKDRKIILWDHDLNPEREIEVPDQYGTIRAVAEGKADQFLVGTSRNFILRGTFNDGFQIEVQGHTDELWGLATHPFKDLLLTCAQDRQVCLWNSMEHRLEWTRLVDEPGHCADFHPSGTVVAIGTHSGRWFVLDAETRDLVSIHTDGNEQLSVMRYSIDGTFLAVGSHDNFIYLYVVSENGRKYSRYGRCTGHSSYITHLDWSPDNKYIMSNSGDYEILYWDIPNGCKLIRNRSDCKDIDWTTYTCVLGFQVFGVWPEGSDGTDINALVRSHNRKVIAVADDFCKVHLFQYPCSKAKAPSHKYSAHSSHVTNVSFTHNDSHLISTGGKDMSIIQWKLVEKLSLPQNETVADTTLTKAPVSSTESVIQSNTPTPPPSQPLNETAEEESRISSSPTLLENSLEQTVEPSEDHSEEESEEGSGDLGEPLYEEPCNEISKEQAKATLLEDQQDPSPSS
Sequence of EML4-ALK (Homo sapiens) (Q9UM73 19-1620 limits assumed): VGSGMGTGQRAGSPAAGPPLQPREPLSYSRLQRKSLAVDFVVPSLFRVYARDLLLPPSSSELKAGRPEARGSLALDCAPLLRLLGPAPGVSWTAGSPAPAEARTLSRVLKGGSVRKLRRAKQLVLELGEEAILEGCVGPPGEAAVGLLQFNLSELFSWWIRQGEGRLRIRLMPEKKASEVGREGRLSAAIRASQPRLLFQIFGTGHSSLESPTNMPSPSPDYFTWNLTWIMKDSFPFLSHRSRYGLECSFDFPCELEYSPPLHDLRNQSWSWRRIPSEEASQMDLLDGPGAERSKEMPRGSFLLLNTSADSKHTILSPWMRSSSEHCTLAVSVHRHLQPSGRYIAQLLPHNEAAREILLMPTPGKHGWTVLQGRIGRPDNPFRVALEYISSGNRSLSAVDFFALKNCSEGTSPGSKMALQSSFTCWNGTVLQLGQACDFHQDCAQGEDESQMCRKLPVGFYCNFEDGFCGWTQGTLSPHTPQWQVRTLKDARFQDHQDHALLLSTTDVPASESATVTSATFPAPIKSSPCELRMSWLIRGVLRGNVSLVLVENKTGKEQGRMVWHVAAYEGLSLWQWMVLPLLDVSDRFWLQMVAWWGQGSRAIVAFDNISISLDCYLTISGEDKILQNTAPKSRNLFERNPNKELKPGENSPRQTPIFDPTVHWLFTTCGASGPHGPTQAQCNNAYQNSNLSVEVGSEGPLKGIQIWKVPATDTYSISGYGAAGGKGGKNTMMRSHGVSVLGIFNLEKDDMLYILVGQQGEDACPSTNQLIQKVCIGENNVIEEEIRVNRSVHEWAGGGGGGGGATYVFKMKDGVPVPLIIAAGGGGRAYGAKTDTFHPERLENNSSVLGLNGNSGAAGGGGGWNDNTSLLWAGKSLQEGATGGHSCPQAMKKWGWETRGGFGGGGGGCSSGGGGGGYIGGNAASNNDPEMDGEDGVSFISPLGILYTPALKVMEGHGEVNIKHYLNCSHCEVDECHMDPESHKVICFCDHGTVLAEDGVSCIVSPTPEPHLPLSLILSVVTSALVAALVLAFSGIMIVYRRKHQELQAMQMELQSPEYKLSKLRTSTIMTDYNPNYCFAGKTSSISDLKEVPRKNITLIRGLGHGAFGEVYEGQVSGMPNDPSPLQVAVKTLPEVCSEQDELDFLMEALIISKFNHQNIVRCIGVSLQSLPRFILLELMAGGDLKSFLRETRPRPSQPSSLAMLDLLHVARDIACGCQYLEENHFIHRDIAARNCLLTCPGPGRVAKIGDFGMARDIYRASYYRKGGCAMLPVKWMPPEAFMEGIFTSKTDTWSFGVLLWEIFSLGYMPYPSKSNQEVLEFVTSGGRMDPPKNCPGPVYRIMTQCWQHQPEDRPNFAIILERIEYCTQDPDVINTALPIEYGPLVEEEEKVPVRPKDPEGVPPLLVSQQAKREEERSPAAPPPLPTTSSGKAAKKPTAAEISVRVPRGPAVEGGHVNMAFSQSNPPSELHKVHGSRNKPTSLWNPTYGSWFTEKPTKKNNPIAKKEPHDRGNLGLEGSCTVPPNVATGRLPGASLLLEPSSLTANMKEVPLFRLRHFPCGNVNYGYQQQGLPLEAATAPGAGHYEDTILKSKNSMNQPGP
Sequence of Calcium/calmodulin-dependent protein kinase type 1D (Homo sapiens) (Q8IU85 whole entry, looked up): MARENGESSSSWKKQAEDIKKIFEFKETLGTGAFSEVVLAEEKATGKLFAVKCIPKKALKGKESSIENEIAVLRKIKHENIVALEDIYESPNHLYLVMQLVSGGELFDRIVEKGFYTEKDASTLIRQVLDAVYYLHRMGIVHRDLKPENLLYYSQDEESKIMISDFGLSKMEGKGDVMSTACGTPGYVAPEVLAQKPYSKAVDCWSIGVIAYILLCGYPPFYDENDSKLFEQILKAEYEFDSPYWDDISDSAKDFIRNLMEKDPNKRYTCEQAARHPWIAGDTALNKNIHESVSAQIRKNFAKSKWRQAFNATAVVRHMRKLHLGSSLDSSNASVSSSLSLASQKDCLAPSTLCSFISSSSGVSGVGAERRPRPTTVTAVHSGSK
Sequence of Protein kinase C zeta type (Homo sapiens) (Q05513 whole entry): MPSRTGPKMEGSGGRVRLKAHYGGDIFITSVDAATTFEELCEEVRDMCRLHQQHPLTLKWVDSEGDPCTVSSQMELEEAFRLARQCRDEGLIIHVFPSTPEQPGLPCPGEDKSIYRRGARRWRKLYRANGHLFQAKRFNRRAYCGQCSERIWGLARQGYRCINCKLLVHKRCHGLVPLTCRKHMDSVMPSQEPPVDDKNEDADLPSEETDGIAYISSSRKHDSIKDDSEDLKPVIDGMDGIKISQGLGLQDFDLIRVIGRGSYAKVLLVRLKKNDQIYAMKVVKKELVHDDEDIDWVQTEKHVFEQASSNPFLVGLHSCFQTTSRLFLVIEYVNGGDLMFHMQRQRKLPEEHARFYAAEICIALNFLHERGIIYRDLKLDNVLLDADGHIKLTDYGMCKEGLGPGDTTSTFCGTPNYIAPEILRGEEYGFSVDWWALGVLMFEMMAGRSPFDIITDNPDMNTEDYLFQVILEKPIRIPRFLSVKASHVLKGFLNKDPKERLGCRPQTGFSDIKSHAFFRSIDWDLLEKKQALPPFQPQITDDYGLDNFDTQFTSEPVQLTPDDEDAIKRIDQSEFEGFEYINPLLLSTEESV
Sequence of Casein kinase I isoform gamma-3 (Homo sapiens) (Q9Y6M4 whole entry, looked up, canonical isoform): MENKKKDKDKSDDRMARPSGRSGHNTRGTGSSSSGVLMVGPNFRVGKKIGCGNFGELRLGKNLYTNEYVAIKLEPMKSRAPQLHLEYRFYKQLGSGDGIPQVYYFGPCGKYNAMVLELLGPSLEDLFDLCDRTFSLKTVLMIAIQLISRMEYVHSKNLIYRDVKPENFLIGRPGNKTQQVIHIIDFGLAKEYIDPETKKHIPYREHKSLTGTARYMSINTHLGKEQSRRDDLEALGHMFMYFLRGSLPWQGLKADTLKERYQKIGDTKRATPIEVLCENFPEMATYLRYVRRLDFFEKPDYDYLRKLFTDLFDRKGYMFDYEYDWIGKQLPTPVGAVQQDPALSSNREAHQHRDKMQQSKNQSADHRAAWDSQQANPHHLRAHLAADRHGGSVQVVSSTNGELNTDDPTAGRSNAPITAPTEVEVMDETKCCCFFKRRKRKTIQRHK

Compound: COc1ccc2c3ccnc(C(F)(F)F)c3n(CCCCN)c2c1
- inhibition [1]: 7%
- inhibition [2]: 5%
- inhibition [3]: 8%
- inhibition [4]: 0%
- IC50 [5]: 0.1 µM
- inhibition [6]: 7%
- inhibition [7]: 0%
- inhibition [8]: 26%
- inhibition [9]: 13%
- inhibition [10]: 21%
- inhibition [11]: 91%
- inhibition [12]: 92%
- inhibition [13]: 84%
- inhibition [14]: 4%
- inhibition (EML4-ALK (Homo sapiens)): 12%
- inhibition [15]: 13%
- inhibition [16]: 1%
- inhibition [17]: 0%
- inhibition [18]: 2%
- inhibition [19]: 35%
- inhibition [20]: 7%
- inhibition [21]: 72%
- inhibition [22]: 55%
- inhibition [23]: 4%
- inhibition [24]: 9%
- inhibition [25]: 4%
- inhibition [26]: 4%
- inhibition [27]: 3%
- inhibition [28]: 5%
- inhibition [29]: 14%
- inhibition [30]: 53%
- inhibition [31]: 1%
- inhibition [32]: 32%
- inhibition [33]: 31%
- inhibition [34]: 8%
- inhibition [35]: 0%
